Laboratory results taken from patent US20240246937A1 (MERCK SHARP & DOHME LLC, priority 2021, published 2024).

Target: recombinant IL4I1 (Homo sapiens (Human), UniProt Q96RQ9)
Test: IL4I1 Enzymatic Assay (Amplex Red/HRP coupled fluorescence detection of H2O2)
Assay type: biochemical
Conditions: 240 min; recombinant IL4I1, four-hour pre-incubation with compound
Procedure, shortened: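 Ten-point, 1:3 compound titrations were fitted by four-parameter sigmoidal regression to give EC50. Resorufin fluorescence (544/590 nm) from Amplex Red/HRP-coupled H2O2 detection was read 120 min after adding 1 mM each aromatic amino acid to 1 nM IL4I1, following a 4 h compound pre-incubation in pH 7.0 Hepes buffer.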

Chain of recombinant IL4I1 (Q96RQ9 22-567): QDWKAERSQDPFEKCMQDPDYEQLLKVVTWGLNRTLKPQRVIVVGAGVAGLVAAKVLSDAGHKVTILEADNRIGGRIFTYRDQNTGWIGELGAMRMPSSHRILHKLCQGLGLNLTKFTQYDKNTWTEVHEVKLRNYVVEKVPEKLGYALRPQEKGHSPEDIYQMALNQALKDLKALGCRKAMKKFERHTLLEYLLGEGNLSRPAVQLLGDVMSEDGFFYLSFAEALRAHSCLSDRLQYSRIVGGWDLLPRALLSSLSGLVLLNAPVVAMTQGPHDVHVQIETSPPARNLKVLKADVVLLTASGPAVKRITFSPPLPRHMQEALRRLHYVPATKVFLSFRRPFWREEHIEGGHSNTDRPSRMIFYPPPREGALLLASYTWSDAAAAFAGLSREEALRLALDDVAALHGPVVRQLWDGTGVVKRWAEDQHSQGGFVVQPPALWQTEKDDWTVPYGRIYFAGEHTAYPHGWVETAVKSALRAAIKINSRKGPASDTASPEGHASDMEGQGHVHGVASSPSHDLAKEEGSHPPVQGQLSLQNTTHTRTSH

Row | EC50 | SMILES
1 | 4 nM | O=C1C(=O)N([C@H]2C[C@H]3C[C@H]3C2)CCN1Cc1ccc(-c2ccccc2F)nn1 [Example 62, 1-((cis)-bicyclo[3.1.0]hexan-3-yl)-4-((6-(2-fluorophenyl)pyridazin-3-yl)methyl)piperazine-2,3-dione]
2 | 4 nM | O=C1C(=O)N(C23CC(C2)C3)CCN1Cc1ccc(-c2cccc(F)c2)nn1 [Example 65, 1-(bicyclo[1.1.1]pentan-1-yl)-4-((6-(3-fluorophenyl)pyridazin-3-yl)methyl)piperazine-2,3-dione]
3 | 7 nM | O=C1C(=O)N(C23CC(C2)C3)CCN1Cc1ccc(-c2ccccc2F)nn1 [Example 66, 1-(bicyclo[1.1.1]pentan-1-yl)-4-((6-(2-fluorophenyl)pyridazin-3-yl)methyl)piperazine-2,3-dione]
4 | 3 nM | O=C1C(=O)N(C2CCC2)CCN1Cc1ncc(-c2ccccc2)s1 [Example 69, 1-cyclobutyl-4-((5-phenylthiazol-2-yl)methyl)piperazine-2,3-dione]
5 | 4 nM | O=C1C(=O)N(C2CCC2)CCN1Cc1cnc(-c2ccccc2)s1 [Example 70, 1-cyclobutyl-4-((2-phenylthiazol-5-yl)methyl)piperazine-2,3-dione]
6 | 9 nM | O=C1C(=O)N(C2CCC2)CCN1Cc1cnc(-c2ccccc2F)cn1 [Example 73, 1-cyclobutyl-4-((5-(2-fluorophenyl)pyrazin-2-yl)methyl)piperazine-2,3-dione]
7 | 5 nM | O=C1C(=O)N(C2CCC2)CCN1Cc1cnc(-c2cccc(F)c2)s1 [Example 79, 1-cyclobutyl-4-((2-(3-fluorophenyl)thiazol-5-yl)methyl)piperazine-2,3-dione]
8 | 15 nM | [2H]c1c([2H])c([2H])c(-c2ccc(CN3CCN(C4CCC4)C(=O)C3=O)nn2)c([2H])c1[2H] [Example 80, 1-cyclobutyl-4-((6-(phenyl-d5)pyridazin-3-yl)methyl)piperazine-2,3-dione]
9 | 60 nM | O=C1C(=O)N(C2CCC2)CCN1Cc1ccc(-c2cc(Br)ccc2F)nn1 [Example 81, 1-((6-(5-bromo-2-fluorophenyl)pyridazin-3-yl)methyl)-4-cyclobutylpiperazine-2,3-dione]

Second part, the compound before the results:

Row | SMILES | EC50
10 | O=c1c(=O)n(C2CCC2)ccn1Cc1cc(-c2ccccc2F)on1 [Example 57, 1-cyclobutyl-4-((5-(2-fluorophenyl)isoxazol-3-yl)methyl)-1,4-dihydropyrazine-2,3-dione] | 3 nM
11 | O=c1c(=O)n([C@H]2C[C@H]3C[C@H]3C2)ccn1Cc1ccc(-c2ccccc2)nn1 [Example 58, 1-((cis)-bicyclo[3.1.0]hexan-3-yl)-4-((6-phenylpyridazin-3-yl)methyl)-1,4-dihydropyrazine-2,3-dione] | 4 nM
12 | O=c1c(=O)n(C2CCCC2)ccn1Cc1ccc(-c2cccc(F)c2)nn1 [Example 59, 1-cyclopentyl-4-((6-(3-fluorophenyl)pyridazin-3-yl)methyl)-1,4-dihydropyrazine-2,3-dione] | 5 nM
13 | O=C1C(=O)N(C2CCCC2)CCN1Cc1cc(-c2ccccc2F)on1 [Example 60, 1-cyclopentyl-4-((5-(2-fluorophenyl)isoxazol-3-yl)methyl)piperazine-2,3-dione] | 10 nM
14 | O=c1c(=O)n(C2CCCC2)ccn1Cc1cc(-c2ccccc2F)on1 [Example 61, 1-cyclopentyl-4-((5-(2-fluorophenyl)isoxazol-3-yl)methyl)-1,4-dihydropyrazine-2,3-dione] | 5 nM
15 | O=c1c(=O)n(C2CCC2)ccn1Cc1ccc(-c2cccc(F)c2)nn1 [Example 63, 1-cyclobutyl-4-((6-(3-fluorophenyl)pyridazin-3-yl)methyl)-1,4-dihydropyrazine-2,3-dione] | 3 nM
16 | O=c1c(=O)n(C23CC(C2)C3)ccn1Cc1ccc(-c2cccc(F)c2)nn1 [Example 64, 1-(bicyclo[1.1.1]pentan-1-yl)-4-((6-(3-fluorophenyl)pyridazin-3-yl)methyl)-1,4-dihydropyrazine-2,3-dione] | 4 nM
17 | O=c1c(=O)n([C@H]2C[C@H]3C[C@H]3C2)ccn1Cc1cc(-c2cccc(F)c2)on1 [Example 67, 1-((cis)-bicyclo[3.1.0]hexan-3-yl)-4-((5-(3-fluorophenyl)isoxazol-3-yl)methyl)-1,4-dihydropyrazine-2,3-dione] | 1 nM
18 | O=c1c(=O)n(C23CC(C2)C3)ccn1Cc1nnc(-c2ccccc2F)s1 [Example 68, 1-(bicyclo[1.1.1]pentan-1-yl)-4-((5-(2-fluorophenyl)-1,3,4-thiadiazol-2-yl)methyl)-1,4-dihydropyrazine-2,3-dione] | 5 nM
19 | O=c1c(=O)n(C2CCC2)ccn1Cc1ccc(-c2cccc(F)c2F)nn1 [Example 71, 1-cyclobutyl-4-((6-(2,3-difluorophenyl)pyridazin-3-yl)methyl)-1,4-dihydropyrazine-2,3-dione] | 6 nM
20 | O=c1c(=O)n(C2CCC2)ccn1Cc1ccc(-c2ccccc2F)nc1 [Example 72, 1-cyclobutyl-4-((6-(2-fluorophenyl)pyridin-3-yl)methyl)-1,4-dihydropyrazine-2,3-dione] | 2 nM
21 | O=c1c(=O)n(C2CCC2)ccn1Cc1cnc(-c2ccccc2F)cn1 [Example 74, 1-cyclobutyl-4-((5-(2-fluorophenyl)pyrazin-2-yl)methyl)-1,4-dihydropyrazine-2,3-dione] | 5 nM
22 | O=c1c(=O)n(C23CC(C2)C3)ccn1Cc1cnc(-c2ccccc2F)cn1 [Example 75, 1-(bicyclo[1.1.1]pentan-1-yl)-4-((5-(2-fluorophenyl)pyrazin-2-yl)methyl)-1,4-dihydropyrazine-2,3-dione] | 7 nM
23 | O=C1C(=O)N(C23CC(C2)C3)CCN1Cc1cc(-c2cccc(F)c2)on1 [Example 76, 1-(bicyclo[1.1.1]pentan-1-yl)-4-((5-(3-fluorophenyl)isoxazol-3-yl)methyl)piperazine-2,3-dione] | 4 nM
24 | O=c1c(=O)n(C23CC(C2)C3)ccn1Cc1cc(-c2ccccc2F)on1 [Example 77, 1-(bicyclo[1.1.1]pentan-1-yl)-4-((5-(2-fluorophenyl)isoxazol-3-yl)methyl)-1,4-dihydropyrazine-2,3-dione] | 3 nM
25 | O=C1C(=O)N(C2CCC2)CCN1Cc1cnc(-c2ccccc2F)s1 [Example 78, 1-cyclobutyl-4-((2-(2-fluorophenyl)thiazol-5-yl)methyl)piperazine-2,3-dione] | 6 nM
26 | CC1(n2ccn(Cc3nnc(-c4cccc(F)c4)s3)c(=O)c2=O)CCC1 [Example 82, 1-((5-(3-fluorophenyl)-1,3,4-thiadiazol-2-yl)methyl)-4-(1-methylcyclobutyl)-1,4-dihydropyrazine-2,3-dione] | 10 nM
27 | CC1(n2ccn(Cc3nnc(-c4ccc(F)cc4)s3)c(=O)c2=O)CCC1 [Example 83, 1-((5-(4-fluorophenyl)-1,3,4-thiadiazol-2-yl)methyl)-4-(1-methylcyclobutyl)-1,4-dihydropyrazine-2,3-dione] | 8 nM
28 | Cc1ccccc1-c1nnc(CN2CCN(C34CC(C3)C4)C(=O)C2=O)s1 [Example 84, 1-(bicyclo[1.1.1]pentan-1-yl)-4-((5-(o-tolyl)-1,3,4-thiadiazol-2-yl)methyl)piperazine-2,3-dione] | 13 nM
29 | O=c1c(=O)n(C23CC(C2)C3)ccn1Cc1ccc(-c2cccnc2)nn1 [Example 85, 1-(bicyclo[1.1.1]pentan-1-yl)-4-((6-(pyridin-3-yl)pyridazin-3-yl)methyl)-1,4-dihydropyrazine-2,3-dione] | 29 nM
